In patent US11807644B2 (PMV Pharmaceuticals, Inc., priority 2020, dated 2023):

The compounds below were run against T1, recombinant His-tag Y220C p53 DBD protein (Homo sapiens, UniProt P04637, Y220C) (assay: In vitro DNA binding activity assay (TR-FRET): binding of His-tag Y220C p53 DBD to biotin-labeled consensus DNA). Conditions: SC150 = concentration to increase DNA binding by […], His-tag Y220C p53 DBD, biotin-labeled consensus DNA.
T1 construct: recombinant His-tag Y220C p53 DBD protein (amino acids #˜94-312)
Assay type: biochemical

Y220C SC150 (μM), ** (** = 0.1 μM ≤ SC150 < 0.5 μM):
CCC1(C(=O)NCc2nnc(-c3cc4c(NC5CCN(C)CC5)cccc4n3CC(F)(F)F)s2)CC1 [Compound 74B, 1-ethyl-N-[(5-{4-[(1-methylpiperidin-4-yl)amino]-1-(2,2,2-trifluoroethyl)-1H-indol-2-yl}-1,3,4-thiadiazol-2-yl)methyl]cyclopropane-1-carboxamide]
CN1CCC(Nc2cccc3c2cc(-c2nnc(CNC(=O)C4(C)CC4)s2)n3CC(F)(F)F)CC1 [Compound 71B, 1-methyl-N-[(5-{4-[(1-methylpiperidin-4-yl)amino]-1-(2,2,2-trifluoroethyl)-1H-indol-2-yl}-1,3,4-thiadiazol-2-yl)methyl]cyclopropane-1-carboxamide]
CN1CCC(Nc2cccc3c2cc(-c2nc(CNC(=O)c4cccs4)no2)n3CC(F)(F)F)CC1 [Compound 139B, N-[(5-{4-[(1-methylpiperidin-4-yl)amino]-1-(2,2,2-trifluoroethyl)-1H-indol-2-yl}-1,2,4-oxadiazol-3-yl)methyl]thiophene-2-carboxamide]

Y220C SC150 (μM), **** (**** = 1 μM ≤ SC150 < 10 μM):
CN1CCC(Nc2cccc3c2cc(-c2cc(C(N)c4ccccc4)[nH]n2)n3CC(F)(F)F)CC1 (stereo not drawn) [Compound 20B, 2-{5-[amino(phenyl)methyl]-1H-pyrazol-3-yl}-N-(1-methylpiperidin-4-yl)-1-(2,2,2-trifluoroethyl)-1H-indol-4-amine]

Y220C SC150 (μM), * (* = 0 μM ≤ SC150 < 0.1 μM):
CO[C@@H]1CCC[C@@H]1n1cc(C(=O)NCc2nc(-c3cc4c(N[C@@H]5CCN(C)C[C@@H]5F)cccc4n3CC(F)(F)F)no2)cn1 (racemic) [Compound 370B]
CN1CCC(Nc2cccc3c2cc(-c2nnc(CNC(=O)c4cc[nH]c4)s2)n3CC(F)(F)F)CC1 [Compound 78B, N-[(5-{4-[(1-methylpiperidin-4-yl)amino]-1-(2,2,2-trifluoroethyl)-1H-indol-2-yl}-1,3,4-thiadiazol-2-yl)methyl]-1H-pyrrole-3-carboxamide]
CN1CC[C@@H](Nc2cccc3c2cc(-c2noc(CNC(=O)c4ccn(C5COC5)c4)n2)n3CC(F)(F)F)[C@@H](F)C1 [Compound 379B, N-{[3-(4-{[(3S,4R)-3-fluoro-1-methylpiperidin-4-yl]amino}-1-(2,2,2-trifluoroethyl)-1H-indol-2-yl)-1,2,4-oxadiazol-5-yl]methyl}-1-(oxetan-3-yl)-1H-pyrrole-3-carboxamide]
CN1CCC(n2ccc(C(=O)NCc3nc(-c4cc5c(N[C@@H]6CCN(C)C[C@@H]6F)cccc5n4CC(F)(F)F)no3)c2)CC1 [Compound 363B, N-{[3-(4-{[(3S,4R)-3-fluoro-1-methylpiperidin-4-yl]amino)-1-(2,2,2-trifluoroethyl)-1H-indol-2-yl)-1,2,4-oxadiazol-5-yl]methyl)-1-(1-methylpiperidin-4-yl)-1H-pyrrole-3-carboxamide]
CC(C)NC[C@@H]1C[C@H]1C(=O)NCc1nc(-c2cc3c(N[C@@H]4CCN(C)C[C@@H]4F)cccc3n2CC(F)(F)F)no1 [Compound 246B, (1R,2R)-N-{[3-(4-{[(3S,4R)-3-fluoro-1-methylpiperidin-4-yl]amino}-1-(2,2,2-trifluoroethyl)-1H-indol-2-yl)-1,2,4-oxadiazol-5-yl]methyl}-2-{[(propan-2-yl)amino]methyl}cyclopropane-1-carboxamide]
COCC1(n2ccc(C(=O)NCc3nc(-c4cc5c(N[C@@H]6CCN(C)C[C@@H]6F)cccc5n4CC(F)(F)F)no3)c2)CCC1 [Compound 471B]
COc1ccc(C(=O)NCc2nc(-c3cc4c(N[C@@H]5CCN(C)C[C@@H]5F)cccc4n3CC(F)(F)F)no2)cc1 [Compound 295B, N-{[3-(4-{[(3S,4R)-3-fluoro-1-methylpiperidin-4-yl]amino}-1-(2,2,2-trifluoroethyl)-1H-indol-2-yl)-1,2,4-oxadiazol-5-yl]methyl}-4-methoxybenzamide]
CN1CC[C@@H](Nc2cccc3c2cc(-c2noc(CNC(=O)c4cnn(C5CCCC5OCCF)c4)n2)n3CC(F)(F)F)[C@@H](F)C1 (stereo in doubt) [Compound 377B, N-{[3-(4-{[(3S,4R)-3-fluoro-1-methylpiperidin-4-yl]amino}-1-(2,2,2-trifluoroethyl)-1H-indol-2-yl)-1,2,4-oxadiazol-5-yl]methyl}-1-[(1R,2R)-2-(2-fluoroethoxy)cyclopentyl]-1H-pyrazole-4-carboxamide]
F[C@H]1CNCC[C@H]1Nc1cccc2c1cc(-c1noc(CNc3cn[nH]c3)n1)n2CC(F)(F)F [Compound 203B, N-[(3S,4R)-3-fluoropiperidin-4-yl]-2-(5-{[(1H-pyrazol-4-yl)amino]methyl}-1,2,4-oxadiazol-3-yl)-1-(2,2,2-trifluoroethyl)-1H-indol-4-amine]
CCN1CC[C@@H](Nc2cccc3c2cc(-c2noc(CNC(=O)c4cn(C(C)(C)C)cn4)n2)n3CC(F)(F)F)[C@@H](F)C1 [Compound 305B, 1-tert-butyl-N-{[3-(4-{[(3S,4R)-1-ethyl-3-fluoropiperidin-4-yl]amino}-1-(2,2,2-trifluoroethyl)-1H-indol-2-yl)-1,2,4-oxadiazol-5-yl]methyl}-1H-imidazole-4-carboxamide]
CN1CCC(Nc2cccc3c2cc(-c2noc(CNC(=O)c4ccn(C)n4)n2)n3CC(F)(F)F)CC1 [Compound 155B, 1-methyl-N-[(3-{4-[(1-methylpiperidin-4-yl)amino]-1-(2,2,2-trifluoroethyl)-1H-indol-2-yl}-1,2,4-oxadiazol-5-yl)methyl]-1H-pyrazole-3-carboxamide]
CN1CCC(Nc2cccc3c2cc(-c2noc(CNC(=O)c4nccs4)n2)n3CC(F)(F)F)CC1 [Compound 149B, N-[(3-{4-[(1-methylpiperidin-4-yl)amino]-1-(2,2,2-trifluoroethyl)-1H-indol-2-yl}-1,2,4-oxadiazol-5-yl)methyl]-1,3-thiazole-2-carboxamide]
COCCn1cccc1C(=O)NCc1nc(-c2cc3c(N[C@@H]4CCN(C)C[C@@H]4F)cccc3n2CC(F)(F)F)no1 [Compound 538B, N-{[3-(4-{[(3S,4R)-3-fluoro-1-methylpiperidin-4-yl]amino}-1-(2,2,2-trifluoroethyl)-1H-indol-2-yl)-1,2,4-oxadiazol-5-yl]methyl}-1-(2-methoxyethyl)-1H-pyrrole-2-carboxamide]
COCC1(c2cc(C(=O)NCc3nc(-c4cc5c(N[C@@H]6CCN(C)C[C@@H]6F)cccc5n4CC(F)(F)F)no3)cs2)CC1 [Compound 488B, N-{[3-(4-{[(3S,4R)-3-fluoro-1-methylpiperidin-4-yl]amino}-1-(2,2,2-trifluoroethyl)-1H-indol-2-yl)-1,2,4-oxadiazol-5-yl]methyl}-5-[1-(methoxymethyl)cyclopropyl]thiophene-3-carboxamide]
CN1CC[C@@H](Nc2cccc3c2cc(-c2noc(CNC(=O)c4cccc(N5CCOCC5)c4)n2)n3CC(F)(F)F)[C@@H](F)C1 [Compound 262B, N-{[3-(4-{[(3S,4R)-3-fluoro-1-methylpiperidin-4-yl]amino}-1-(2,2,2-trifluoroethyl)-1H-indol-2-yl)-1,2,4-oxadiazol-5-yl]methyl}-3-(morpholin-4-yl)benzamide]
C[C@@H]1C[C@H]1C(=O)NCc1nnc(-c2cc3c(NC4CCN(C)CC4)cccc3n2CC(F)(F)F)s1 (racemic) [Compound 34B, (+/−)-(1R,2R)-2-methyl-N-[(5-{4-[(1-methylpiperidin-4-yl)amino]-1-(2,2,2-trifluoroethyl)-1H-indol-2-yl}-1,3,4-thiadiazol-2-yl)methyl]cyclopropane-1-carboxamide]
CN1CC[C@@H](Nc2cccc3c2cc(-c2noc(CNC(=O)c4cccc(C(C)(C)O)c4)n2)n3CC(F)(F)F)[C@@H](F)C1 [Compound 549B, N-{[3-(4-{[(3S,4R)-3-fluoro-1-methylpiperidin-4-yl]amino}-1-(2,2,2-trifluoroethyl)-1H-indol-2-yl)-1,2,4-oxadiazol-5-yl]methyl}-3-(2-hydroxypropan-2-yl)benzamide]
CN1CC[C@@H](Nc2cccc3c2cc(-c2nnc(CNC(=O)OCc4ccccc4)s2)n3CC(F)(F)F)[C@@H](F)C1 (racemic) [Compound 44B, (+/−)-benzyl N-{[5-(4-{[(3R,4S)-3-fluoro-1-methylpiperidin-4-yl]amino}-1-(2,2,2-trifluoroethyl)-1H-indol-2-yl)-1,3,4-thiadiazol-2-yl]methyl}carbamate]

Same assay, conditions: concentration to increase DNA binding by […], incubated at either 27° C. or 29° C. for 60 min

SC150 (μM), +++ (+++ = 5 μM ≤ SC150 < 10 μM):
O=S1(=O)CCC(Nc2cccc3c2cc(-c2ccc(CN4CCOCC4)cc2)n3CC(F)(F)F)CC1 [Compound 24A, 4-[(2-{4-[(morpholin-4-yl)methyl]phenyl}-1-(2,2,2-trifluoroethyl)-1H-indol-4-yl)amino]-1λ^6-thiane-1,1-dione]

SC150 (μM), + (+ = 0 μM ≤ SC150 < 2 μM):
CN1CC[C@H](Nc2cccc3c2cc(-c2ccc(CNC(=O)c4ccccc4)cc2)n3CC(F)(F)F)[C@H](F)C1 (racemic) [Compound 45A, (+/−)-N-{[4-(4-{[(3R,4S)-3-fluoro-1-methylpiperidin-4-yl]amino}-1-(2,2,2-trifluoroethyl)-1H-indol-2-yl)phenyl]methyl}benzamide]
